Ends that are not written are not given here.
Tests used:
skin S. aureus = conditions: literature (Murakami et al.); cited from earlier work
Pseudomonas aeruginosa = assay type: cell-based
Text: (§1) Microorganisms against which a polypeptide of the invention is active include prokaryotic and eukaryotic cells such as Gram-negative and Gram-positive bacteria, yeast and protozoa. Non-limiting examples include Listeria monocytogenes, Staphylococcus aureus, Escherichia coli, Klebsiella pneumoniae, Salmonella typhimurium, Pseudomonas aeruginosa, Proteus mirabilis, Salmonella enteritidis, Neisseria gonorrhoeae, Ureaplasma canigenitalium, Ureaplasma urealyticum, Candida albicans, Trichomonas vaginalis, Treponema pallidum or Chlamydia trachomatis, or a spoilage organism. […] MIC antimicrobial activity refers to complete inhibition of the growth of a microorganism, as judged by the naked eye, after a selected period of incubation. The method used to determine MIC is that set forth in Sang et al., Infection and Immunity, 2611-20 (May, 2005).
(§2) Microorganisms evaluated were: Candida albicans ATCC 11006 and 14053, Escherichia coli ATCC 25922, 700336, 700378, and BAA-457, Klebsiella pneumoniae ATCC 10031, Listeria monocytogenes ATCC 19155, Proteus mirabilis ATCC 12453, Pseudomonas aeruginosa ATCC 10145, Salmonella Enteritidis ATCC 13076, Salmonella Typhimurium ATCC 13311, Staphylococcus aureus ATCC 10832, Ureaplasma canigenitalium ATCC 51252, and Ureaplasma urealyticum ATCC 27619. C. albicans was grown overnight (35° C.) on potato dextrose agar and managed according to NCCSL standards (Pfaller et al., Manual NCCLS #M27-A2, 6th ed., Wayne, Pa. (2002)). U. canigenitalium and U urealyticum were stored at −20° C. in urea broth 10B (per ATCC specifications) and thawed at 5° C. the night prior to assay. All other bacteria were maintained on trypticase soy agar (Difco, Detroit, Mich.) plates at 37° C. Mid-logarithmic phase bacteria were grown by transferring single cell colonies into trypticase soy broth (Difco), followed by incubation and homogenization for 3 hours at 37° C. Bacterial pellets were obtained after centrifugation for 10 minutes at 4° C. at 900×g, and washed once, followed by suspension in 10 mM sodium phosphate buffer (PB, pH 7.4, [Na+]=17.83 mM). Initial bacterial concentrations were determined (Ferraro et al., Manual NCCLS #M7-A6, 6th ed., Wayne, Pa. (2003)). Initial bacterial populations of 10^8 CFU/mL were obtained at an optical density (OD) of 0.1 at 600 nm. C. albicans were suspended in 10 mM PB to a McFarland standard of 0.5 for an initial 10^8 CFU/ml following NCCLS standards (Pfaller et al., Manual NCCLS #M27-A2, 6th ed., Wayne, Pa. (2002)), except that the recommended 0.85% saline solution was replaced with 10 mM PB. All microbial serial dilutions were performed in 10 mM PB to obtain 10^3 CFU/mL working dilutions.
(§3) A modified broth microdilution method (Pfaller et al., Manual NCCLS #M27-A2, 6th ed., Wayne, Pa. (2002); Ferraro et al., Manual NCCLS #M7-A6, 6th ed., Wayne, Pa. (2003)) was used to determine the antimicrobial activity of K9CATH (Sang et al., Infect. Immun., 73:2611 (2005)). Briefly, 50 μL of the K9CATH working stocks were added to the wells of a microtiter plate in which 25 μL of 30 mM sodium PB (pH 7.4, [Na+]=53.49 mM), 25 μL H2O, and 50 μL of the microbial suspension had been previously combined. Microtiter plates were incubated at 37° C. for 2 hours in a shaking incubator (100 RPM), followed by the addition of 150 μL of the corresponding nutritive broth. Antimicrobial activity was determined by establishing the minimal inhibitory concentrations (MIC), defined as the lowest concentration in which microbial growth was prevented, as indicated by the lack of turbidity or color change in the medium (urea broth 10B) after 24 hours of incubation at 37° C. Treated gonorrheal suspension (50 μL) was spot-plated on chocolate agar, and the MIC was defined as the lowest concentration in which no colonies developed after 24 hours of incubation at 37° C. in 5% CO2. […]

Salmonella Typhimurium = assay type: cell-based
Text: as §1, §2, §3

Ureaplasma urealyticum = assay type: cell-based
Text: as §1, §2, §3

Listeria monocytogenes = assay type: cell-based
Text: as §1, §2, §3

Proteus mirabilis = assay type: cell-based
Text: as §1, §2, §3

Klebsiella pneumoniae = assay type: cell-based
Text: as §1, §2, §3

Salmonella Enteritidis = assay type: cell-based
Text: as §1, §2, §3

Escherichia coli = assay type: cell-based
Text: as §1, §2, §3

chicken erythrocytes = assay type: cell-based
Protocol: FIG. 9. Hemolytic Activity of Canine Cathelicidin. The assays were performed with chicken red blood cells as previously described (49). The data shown represent the mean of duplicate values from two independent experiments.
(§4) Hemolytic activity of K9CATH was determined (Skerlavag, FEBS Lett., 463:58 (1999); Yu et al., J. Pept. Res., 60:1 (2002)). Briefly, 4 mL of canine blood was collected in EDTA-containing blood collection tubes (Becton Dickinson, Franklin Lakes, N.J.). Whole blood was then centrifuged at 10,000×g for 1 minute at room temperature. Plasma was discarded (supernatant) and erythrocytes were washed twice with PBS, re-suspended to a 0.5% (vol/vol) solution in PBS, and 90 μL dispensed into 96-well microtiter plates. Different concentrations of K9CATH dissolved in 0.01% acetic acid were added in duplicate to dog cells and incubated at 37° C. for 2 hours. Following centrifugation at 8000×g for 10 minutes, supernatants were transferred to new 96-well microtiter plates and monitored by measuring the absorbance at 405 nm for released hemoglobin. Controls for 0 and 100% hemolysis consisted of cells suspended in PBS only and in 1.0% Triton X-100, respectively. Percentage of hemolysis (%) was calculated as [(OD415 nm, peptide solution−OD415 nm, PBS only)/(OD415 nm, 1% Triton X-100−OD 415 nm, PBS only)]×100. […]

dog erythrocytes = assay type: cell-based
Protocol: as §4, with “only)]×100. The N-terminal 18 amino acid segment of bovine myeloid antimicrobial peptide 28 (BMAP-28(1-18)) (Skerlavaj et al., J. Biol. Chem., 271:28375 (1996); Yu et al., J. Pept. Res., 60:1 (2002); Risso et al., Cell. Immunol., 189:107 (1998)) was used as a positive control.” for “only)]×100.”

Substance | concentration inhibiting skin S. aureus (skin S. aureus) | MIC (Pseudomonas aeruginosa) | MIC (Salmonella Typhimurium) | MIC (Ureaplasma urealyticum) | MIC (Listeria monocytogenes) | MIC (Proteus mirabilis) | MIC (Klebsiella pneumoniae) | MIC (Salmonella Enteritidis) | MIC (Escherichia coli) | lower in vitro hemolytic activity compared to BMAP-18 (chicken erythrocytes) | lower in vitro hemolytic activity compared to BMAP-18 (dog erythrocytes)
LL-37: human cathelicidin antimicrobial peptide (LLGDFFRKSKEKIGKEFKRIVQRIKDFLRNLVPRTES; Antibacterial peptide LL-37; UniProt P49913 134-170, looked up) | > 64 µM |  |  |  |  |  |  |  |  |  | 
RLKELITTGGQKIGEKIRRIGQRIKDFFKNLQPREEKS [K9CATH] |  | 1.11 µM | 1.11 µM | 44.33 µM | 0.44 µM | 1.11 µM | 1.11 µM | 0.44 µM | 1.11 µM | 10-20 fold | 10-20 fold
